# Assay results from US9527830B2 (Merck Sharp & Dohme Corp., priority 2011, dated 2016).
# Target: T1, hROMK1 (Kir1.1) (Homo sapiens, UniProt P48048)
# T1 construct: expressed in transfected cells
# T1 sequence (P48048 1-391): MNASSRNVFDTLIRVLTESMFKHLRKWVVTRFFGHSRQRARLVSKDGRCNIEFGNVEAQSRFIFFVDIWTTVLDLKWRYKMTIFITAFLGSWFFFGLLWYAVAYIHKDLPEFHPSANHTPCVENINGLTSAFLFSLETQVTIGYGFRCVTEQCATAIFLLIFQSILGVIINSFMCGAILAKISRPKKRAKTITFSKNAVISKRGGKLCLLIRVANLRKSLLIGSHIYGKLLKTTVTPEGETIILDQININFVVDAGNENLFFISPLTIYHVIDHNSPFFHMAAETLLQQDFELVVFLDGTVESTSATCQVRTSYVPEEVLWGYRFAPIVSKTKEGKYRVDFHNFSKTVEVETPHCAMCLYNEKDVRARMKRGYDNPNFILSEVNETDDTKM
# Experiment: ^86Rb^+ Efflux Assay
# Assay type: cell-based
# Details: CHO-DHFR- cells stably expressing hROMK1; potency ranges
# Experimental: Several assays may be used to measure functional inhibition of the ROMK channel by compounds of the instant invention. One primary assay that can be used is a functional ^86Rb^+ efflux assay that measures the ability of ROMK to permeate ^86Rb^+, in the absence or presence of test compound. Under control conditions, cells loaded with ^86Rb^+ and incubated in Rb^+-free medium display a time-dependent efflux of the isotope, the rate of which depends on number of functional channels. When cells are incubated in the presence of a channel inhibitor, efflux of ^86Rb^+ is prevented in a concentration-dependent manner, and IC50 values of inhibition by compounds can be accurately determined. This assay has been established with cell lines expressing either human, rat or dog ROMK channels, and can operate in 96- or 384-well format. Importantly, the human, rat, and dog ^86Rb^+ efflux assays can be carried out in the presence of up to 100% serum allowing, therefore, an accurate estimation of the effect of protein binding on the inhibitory activity of compounds of interest. Another ROMK functional assay makes use of the ability of thallium to permeate through open ROMK channels and increase the fluorescence of a dye previously loaded into the cells. Under control conditions, cells loaded with dye and exposed to thallium-containing medium display a time-dependent increase in fluorescence, the rate of which depends on number of functional channels. When cells are incubated in the presence of a channel inhibitor, the increase in fluorescence is attenuated in a concentration-dependent manner, and IC50 values of inhibition by compounds can be accurately determined. This assay has been established with cell lines expressing either human, or rat ROMK channels, and operates in 384-well format. Another assay for evaluation of the compounds of the instant invention and for evaluation of mechanism of action of compounds of Formula I relies on the measurement of the electrical current that is generated as potassium permeates through the channel. For these electrophysiological experiments, three different platforms, IonWorks, QPatch, or manual patch clamp, are used, depending on the experimental protocol under consideration. IonWorks operates in a 384-well format and allows accurate determination of IC50 values for inhibitors.
# CHO-DHFR-cells stably expressing hROMK1 (Kir1.1) were grown at 37° C. in a 10% CO2 humidified incubator in Iscove's Modified Dulbecco's Medium (Gibco 12440) supplemented with HT Supplement, Penicillin/Streptomycin/Glutamine, G418 (500 μg/ml) and 10% FBS. Cells were seeded in Sterile and Tissue Culture Treated Packard CulturPlate White Opaque Microplates at a concentration of 5.0E5-7.0E5 cells/ml—PerkinElmer 6005680 (96-well); Corning 3707 (384 well) in complete media containing 1.5 μCi/ml Rubidium-86. Cells were incubated in 37° C.-10% CO2 incubator overnight. On the day of the experiment, the media was removed and cells washed with low K assay buffer. ^86Rb^+ efflux was initiated after addition of assay buffer±test compound followed by 35 min incubation at room temperature. ROMK-sensitive component of efflux was defined in the presence of 10 mM BaCl2. Assay buffer was removed and transferred to a plate and cells were solubilized in the presence of SDS. Radioactivity associated with assay and cell plate was determined.
# • 1. Removed cell media and washed cells with low K assay buffer (126.9 mM NaCl, 4.6 mM KCl, 2 mM CaCl2, 1 mM MgCl2, 10 mM Hepes/NaOH; pH 7.4) • 200 μl for 96-well plate; 70 μl for 384-well plate • 2. Added assay buffer (121.5 mM NaCl, 10 mM KCl, 2 mM CaCl2, 1 mM MgCl2, 10 mM Hepes/NaOH; pH 7.4)±test compound to cells • 100 μl for 96-well plate; 50 μl for 384-well plate • 3. Incubated at ambient temperature (22-24° C.) for 35 min • 4.
row,Compound,IC50
1,"N#Cc1cc(/C=C/C2CCN(C(=O)Cc3ccc4c(c3)COC4=O)CC2)ccc1F [Example 48, 2-Fluoro-5-[(E)-2-{1-[(1-oxo-1,3-dihydro-2-benzofuran-5-yl)acetyl]piperidin-4-yl}ethenyl]benzonitrile]",≤ 500 nM
2,"COc1cc(CC(=O)N2CCC(CCc3ccc4c(c3)COC4=O)CC2)c(F)cc1C#N [Example 56, 5-Fluoro-2-methoxy-4-(2-oxo-2-{4-[2-(1-oxo-1,3-dihydro-2-benzofuran-5-yl)ethyl]piperidin-1-yl}ethyl)benzonitrile]",≤ 500 nM
3,"O=C1OCc2c1ccc(CCC1CCN(C(=O)Cc3ccc(-n4cnnn4)cc3)CC1)c2F [Example 57, 4-Fluoro-5-[2-(1-{[4-(1H-tetrazol-1-yl)phenyl]acetyl}piperidin-4-yl)ethyl]-2-benzofuran-1(3H)-one]",≤ 200 nM
4,"O=C1OCc2c1ccc(CCC1CCN(C(=O)Cc3ccc(-n4cnnn4)cc3)CC1)c2Br [Example 59, 4-Bromo-5-[2-(1-{[4-(1H-tetrazol-1-yl)phenyl]acetyl}piperidin-4-yl)ethyl]-2-benzofuran-1(3H)-one]",≤ 200 nM
5,"N#Cc1ccc(CC(=O)N2CCC(CCc3ccc4c(c3)COC4=O)CC2)cc1Br [Example 64, 2-Bromo-4-[2-oxo-2-[4-[2-(1-oxo-3H-isobenzofuran-5-yl)ethyl]-1-piperidyl]ethyl]benzonitrile]",≤ 500 nM
6,"COc1cc(CC(=O)N2CCC(CCc3ccc4c(c3)CCOC4=O)CC2)c(F)cc1C#N [Example 67, 5-Fluoro-2-methoxy-4-(2-oxo-2-{4-[2-(1-oxo-3,4-dihydro-1H-isochromen-6-yl)ethyl]piperidin-1-yl}ethyl)benzonitrile]",≤ 500 nM
7,"COc1cc(C#N)c(F)cc1CC(=O)N1CCC(CCc2ccc3c(c2)COC3=O)CC1 [Example 70, 2-Fluoro-5-methoxy-4-(2-oxo-2-{4-[2-(1-oxo-1,3-dihydro-2-benzofuran-5-yl)ethyl]piperidin-1-yl}ethyl)benzonitrile]",≤ 200 nM
8,"COc1cc(CCN2CCC(CCc3ccc4c(c3)COC4=O)CC2)ccc1C#N [Example 71, 2-Methoxy-4-(2-{4-[2-(1-oxo-1,3-dihydro-2-benzofuran-5-yl)ethyl]piperidin-1-yl}ethyl)benzonitrile]",≤ 200 nM
9,"CN(C)C1(CCc2ccc(F)c(C#N)c2)CCN(C(=O)Cc2ccc(-n3cnnn3)cc2)CC1 [Example 82, 5-{2-[4-(Dimethylamino)-1-{[4-(1H-tetrazol-1-yl)phenyl]acetyl}piperidin-4-yl]ethyl}-2-fluorobenzonitrile]",≤ 500 nM
10,Cc1cc(/C=C/C2CCN(CCc3ccc4c(c3)COC4=O)CC2)ccc1C#N [Example 83],≤ 200 nM
11,"N#Cc1ccc(/C=C/C2CCN(CCc3ccc4c(c3)COC4=O)CC2)cc1 [Example 84, 4-[(E)-2-{1-[2-(1-Oxo-1,3-dihydro-2-benzofuran-5-yl)ethyl]piperidin-4-yl}ethenyl]benzonitrile]",≤ 500 nM

# Continued, values first:
row,IC50,Compound
1,≤ 500 nM,"O=C1OCc2cc(CCC3CCN(C(=O)Cc4ccc5c(c4)COC5=O)CC3)ccc21 [Example 50, 5-(2-{1-[(1-Oxo-1,3-dihydro-2-benzofuran-5-yl)acetyl]piperidin-4-yl}ethyl)-2-benzofuran-1(3H)-one]"
2,≤ 500 nM,"O=C1OCc2cc(SC3CCN(C(=O)Cc4ccc(-n5cnnn5)cc4)CC3)ccc21 [Example 51, 5-[(1-{[4-(1H-Tetrazol-1-yl)phenyl]acetyl}piperidin-4-yl)sulfanyl]-2-benzofuran-1(3H)-one]"
3,≤ 500 nM,"COc1cc(CC(=O)N2CCC(/C=C/c3ccc4c(c3)COC4=O)CC2)ccc1C#N [Example 52, 2-Methoxy-4-(2-oxo-2-(4-[(E)-2-(1-oxo-1,3-dihydro-2-benzofuran-5-yl)ethenyl]piperidin-1-yl}ethyl]benzonitrile]"
4,≤ 500 nM,"COc1cc(CC(=O)N2CCC(CCc3ccc4c(c3)COC4=O)CC2)ccc1C#N [Example 53, 2-Methoxy-4-(2-oxo-2-(4-[2-(1-oxo-1,3-dihydro-2-benzofuran-5-yl)ethyl]piperidin-1-yl}ethyl]benzonitrile]"
5,≤ 200 nM,"O=C1OCc2cc(OCC3CCN(C(=O)Cc4ccc(-n5cnnn5)cc4)CC3)ccc21 [Example 55, 5-[(1-{[4-(1H-Tetrazol-1-yl)phenyl]acetyl}piperidin-4-yl)methoxy]-2-benzofuran-1(3H)-one]"
6,≤ 200 nM,"O=C1OCCc2cc(CCC3CCN(C(=O)Cc4ccc(-n5cnnn5)cc4)CC3)ccc21 [Example 65, 6-[2-(1-{[4-(1H-tetrazol-1-yl)phenyl]acetyl}piperidin-4-yl)ethyl]-3,4-dihydro-1H-isochromen-1-one]"
7,≤ 200 nM,O=C1OCCc2cc(CCC3CCN(C(=O)C4CCc5cc(-n6cnnn6)ccc54)CC3)ccc21 (stereo not shown) [Example 66]
8,≤ 500 nM,"O=C1OCc2c1ccc(/C=C/C1CCN(C(=O)Cc3ccc(-n4cnnn4)cc3)CC1)c2Br [Example 68, 4-Bromo-5-[(E)-2-(1-{[4-(1H-tetrazol-1-yl)phenyl]acetyl}piperidin-4-yl)ethenyl]-2-benzofuran-1(3H)-one]"
9,≤ 200 nM,"O=C1OCc2cc(CCC3CCN(C(=O)C4CCc5cc(-n6cnnn6)ccc54)CC3)ccc21 (stereo not shown) [Example 72, 5-[2(1-{[5(1H-Tetrazol-1-yl)-2,3-dihydro-1H-inden-yl]carbonyl}piperidin-4-yl)ethyl]-2-benzofuran-1(3H)-one]"
10,≤ 200 nM,"CC1Cc2cc(/C=C/C3CCN(C(=O)Cc4ccc(-n5cnnn5)cc4)CC3)ccc2C(=O)O1 (stereo not shown) [Example 79, 3-Methyl-6-[(E)-2-(1-{[4-(1H-tetrazol-1-yl)phenyl]acetyl}piperidin-4-yl)ethenyl]-3,4-dihydro-1H-isochromen-1-one]"
11,≤ 200 nM,"CC1Cc2cc(CCC3CCN(C(=O)Cc4ccc(-n5cnnn5)cc4)CC3)ccc2C(=O)O1 (stereo not shown) [Example 80, 3-Methyl-6-[2-(1-{[4-(1H-tetrazol-1-yl)phenyl]acetyl}piperidin-4-yl)ethyl]-3,4-dihydro-1H-isochromen-1-one]"
